For assay [1], the target named is T1, human c-kit (Homo sapiens, UniProt P10721).
T1 construct: GST-tagged recombinant kinase domain of the human c-kit; GST; host or cells: SF-9 insect cells
The assay is described as follows: cKIT-Kinase HTRF-Assay (assay 4). Type of assay: biochemical. Conditions: for IC50: GST-tagged kinase domain of human c-kit, 10 μM ATP; for Selectivity vs. cKit: IC50 assay 4/IC50 assay 2. The method, then:
Assay 4: cKIT-Kinase HTRF-Assay
c-Kit-inhibitory activity of compounds of the present invention was quantified employing the c-kit HTRF assay as described in the following paragraphs. GST-tagged recombinant kinase domain of the human c-kit expressed in SF-9 cells was used as kinase. As substrate for the kinase reaction biotinylated poly-(Glu,Tyr) (Cis biointernational, France) was used.
c-Kit was incubated for 30 min at 22° C. in the presence of different concentrations of test compounds in 5 μl assay buffer [50 mM Hepes/NaOH pH 7.0, 1 mM MgCl2, 5 mM MnCl2, 1.0 mM dithiothreitol, 0.1 mM sodium ortho-vanadate, 10 μM adenosine-tri-phosphate (ATP), 1.3 μg/ml substrate, 0.001% (v/v) Nonidet-P40 (Sigma), 1% (v/v) dimethylsulfoxide]. The concentration of c-kit was adjusted depending of the activity of the enzyme lot and was chosen appropriate to have the assay in the linear range. The reaction was stopped by the addition of 5 μl of a solution of HTRF detection reagents (0.1 μM streptavidine-XLent and 1 nM PT66-Eu-Chelate, an europium-chelate labelled anti-phospho-tyrosine antibody from Perkin Elmer) in an aqueous EDTA-solution (80 mM EDTA, 0.2% (w/v) bovine serum albumin in 50 mM HEPES/NaOH pH 7.0).
(§1) The resulting mixture was incubated 1 h at 22° C. to allow the binding of the biotinylated phosphorylated peptide to the streptavidine-XLent and the PT66-Eu-Chelate. Subsequently the amount of phosphorylated substrate was evaluated by measurement of the resonance energy transfer from the PT66-Eu-Chelate to the streptavidine-XLent. Therefore, the fluorescence emissions at 620 nm and 665 nm after excitation at 350 nm was measured in a HTRF reader, e.g. a Rubystar (BMG Labtechnologies, Offenburg, Germany) or a Viewlux (Perkin-Elmer). The ratio of the emissions at 665 nm and at 622 nm was taken as the measure for the amount of phosphorylated substrate.
A general note: In TR-FRET formats the signal depends on donor and acceptor labels being close together.

Assay [2] addresses T2, Tie2 (Homo sapiens, UniProt Q02763). Put plainly: Tie2 ELISA assay (assay 1): cellular Tie2 autophosphorylation. Particulars: CHO cells stably transfected with Tie2, stimulated by angiopoietin-2; Tie2 autophosphorylation by sandwich-ELISA; read-out: Tie 2 activity (assay 1). The arrangement: expressed in transfected cells; host or cells: CHO (DHFR-deficient), stably transfected. Type of assay: cell-based. The protocol:
Assay 1: Tie2 ELISA Assay
Cellular activity of compounds of the present invention as inhibitors of Tie2 kinase activity was measured employing a Tie2 ELISA assay as described in the following paragraphs. Herein CHO cell-cultures, which are stably transfected by known techniques with Tie2 using DHFR deficiency as selection marker, are stimulated by angiopoietin-2. The specific autophosphorylation of Tie2 receptors is quantified with a sandwich-ELISA using anti-Tie2 antibodies for catch and anti-phosphotyrosine antibodies coupled to HRP for detection. […]
(In general: In an ELISA, binding on a coated surface is turned into a signal by an enzyme label.)
Target sequence in this assay (Q02763 23-1124): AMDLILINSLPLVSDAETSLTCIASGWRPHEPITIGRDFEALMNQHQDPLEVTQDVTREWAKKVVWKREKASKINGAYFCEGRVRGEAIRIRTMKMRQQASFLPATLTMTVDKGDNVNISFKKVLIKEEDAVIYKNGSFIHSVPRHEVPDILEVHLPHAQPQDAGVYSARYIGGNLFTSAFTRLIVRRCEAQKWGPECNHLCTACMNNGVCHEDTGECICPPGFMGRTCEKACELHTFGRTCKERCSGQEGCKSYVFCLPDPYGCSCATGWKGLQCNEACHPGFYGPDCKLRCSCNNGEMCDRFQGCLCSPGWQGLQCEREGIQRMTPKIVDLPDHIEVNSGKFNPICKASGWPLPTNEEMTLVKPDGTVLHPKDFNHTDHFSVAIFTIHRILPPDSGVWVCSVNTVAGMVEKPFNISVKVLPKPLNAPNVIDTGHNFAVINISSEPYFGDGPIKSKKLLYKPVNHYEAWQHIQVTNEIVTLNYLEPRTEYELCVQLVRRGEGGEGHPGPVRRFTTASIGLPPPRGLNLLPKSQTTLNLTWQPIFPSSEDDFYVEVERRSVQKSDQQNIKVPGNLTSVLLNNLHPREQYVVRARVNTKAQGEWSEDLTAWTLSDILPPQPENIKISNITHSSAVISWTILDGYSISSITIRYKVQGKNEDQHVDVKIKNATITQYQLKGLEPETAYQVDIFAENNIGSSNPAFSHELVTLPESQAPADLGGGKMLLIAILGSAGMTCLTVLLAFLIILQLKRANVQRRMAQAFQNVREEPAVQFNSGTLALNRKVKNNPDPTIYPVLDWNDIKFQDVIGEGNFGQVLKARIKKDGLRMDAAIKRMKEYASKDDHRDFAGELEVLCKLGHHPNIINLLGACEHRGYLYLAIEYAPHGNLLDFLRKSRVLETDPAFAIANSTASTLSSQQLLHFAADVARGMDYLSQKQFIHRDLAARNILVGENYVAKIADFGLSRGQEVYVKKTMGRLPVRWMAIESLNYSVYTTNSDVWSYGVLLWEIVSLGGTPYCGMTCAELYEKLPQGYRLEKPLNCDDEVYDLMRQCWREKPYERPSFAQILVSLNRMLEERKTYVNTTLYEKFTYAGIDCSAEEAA

Assay [3] deals with T2, Tie2. Put plainly: Tie-2-Kinase HTRF-Assay without kinase preactivation (assay 2). Type of assay: biochemical. The arrangement: A recombinant fusion protein of GST and the intracellular domains of Tie-2; GST; made in house; host or cells: insect cells (Hi-5). Particulars: GST-Tie-2 intracellular domains, no preactivation, 10 μM ATP.
Excerpt: Assay 2: Tie-2-Kinase HTRF-Assay without Kinase Preactivation
Tie2-inhibitory activity of compounds of the present invention was quantified employing two Tie2 HTRF assay as described in the following paragraphs.
A recombinant fusion protein of GST and the intracellular domains of Tie-2, expressed in insect cells (Hi-5) and purified by Glutathion-Sepharose affinity chromatography was used as kinase. Alternatively, commercially available GST-Tie2-fusion protein (Upstate Biotechnology, Dundee, Scotland) can be used As substrate for the kinase reaction the biotinylated peptide biotin-Ahx-[…] (C-terminus in amid form) was used which can be purchased e.g. from the company Biosynthan GmbH (Berlin-Buch, Germany). Detection of phosphorylated product is achieved specifically by a trimeric detection complex consisting of the phosphorylated substrate, streptavidin-XLent (SA-XLent) which binds to biotin, and Europium Cryptate-labeled anti-phosphotyrosine antibody PT66 which binds to phosphorylated tyrosine.
The reaction was stopped by the addition of 5 μl of an aqueous buffer (25 mM Hepes/NaOH pH 7.5, 0.28% (w/v) bovine serum albumin) containing EDTA (90 mM) and the HTRF (Homogeneous Time Resolved Fluorescence) detection reagents streptavidine-XLent (0.2 μM, from Cis Biointernational, Marcoule, France) and PT66-Eu-Chelate (0.3 ng/μl; a europium-chelate labelled anti-phospho-tyrosine antibody from Perkin Elmer).
as §1, with “substrate peptide” for “substrate”, “substrate peptide.” for “substrate.”
Target sequence in this assay (Q02763 770-1124 limits assumed): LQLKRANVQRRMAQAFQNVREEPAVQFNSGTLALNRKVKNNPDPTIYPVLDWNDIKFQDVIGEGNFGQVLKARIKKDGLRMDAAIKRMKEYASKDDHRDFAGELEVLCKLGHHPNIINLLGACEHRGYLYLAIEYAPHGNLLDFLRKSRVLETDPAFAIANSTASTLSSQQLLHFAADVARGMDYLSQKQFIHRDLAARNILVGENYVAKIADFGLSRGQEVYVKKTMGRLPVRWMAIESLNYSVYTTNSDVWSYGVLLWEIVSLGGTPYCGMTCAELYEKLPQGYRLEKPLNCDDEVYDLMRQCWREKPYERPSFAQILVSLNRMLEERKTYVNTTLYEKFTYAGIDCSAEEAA

The test system of assay [4] is Tie2 vs. KDR. Particulars: Albert et al. Mol. Cancer. Ther. 2006, 5, 995; cited from earlier work.
Assay [5] has as its system Tie2 vs. KDR. Conditions: Albert et al. Mol. Cancer. Ther. 2006, 5, 995; cited from earlier work. This is another data set of the same source.

T1 sequence (P10721 589-937 limits assumed): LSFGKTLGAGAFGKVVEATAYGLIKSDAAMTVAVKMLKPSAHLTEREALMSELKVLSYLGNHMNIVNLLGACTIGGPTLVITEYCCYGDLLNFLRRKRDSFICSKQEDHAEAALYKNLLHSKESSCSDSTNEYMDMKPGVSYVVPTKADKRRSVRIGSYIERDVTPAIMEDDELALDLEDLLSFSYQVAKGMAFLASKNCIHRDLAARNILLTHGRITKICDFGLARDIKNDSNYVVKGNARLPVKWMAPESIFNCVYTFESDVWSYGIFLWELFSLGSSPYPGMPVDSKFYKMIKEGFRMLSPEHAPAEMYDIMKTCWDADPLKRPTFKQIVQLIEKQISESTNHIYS

`Cn1nc(N)c2c(-c3ccc(NC(=O)Nc4cccc(C(F)(F)F)c4)cc3)cc(C3(C(=O)N4CCCC4)CC3)nc21` [Example 1.13, 1-(4-{3-Amino-1-methyl-6-[1-(pyrrolidine-1-carbonyl)-cyclopropyl]-1H-pyrazolo[3,4-b]pyridin-4-yl}-phenyl)-3-(3-trifluoromethyl-phenyl)-urea]: the IC50 in assay [1] was 1 to 10 µM; in assay [2] it was no more than 0.1 µM; in assay [3] it was no more than 0.1 µM. The “Selectivity vs. cKit” value in assay [1] is given as greater than 100.

Regarding `Cn1nc(N)c2c(-c3ccc(NC(=O)Nc4cccc(C(F)(F)F)c4)cc3)cc(C3(C(=O)NCCO)CC3)nc21` [Example 1.14, 1-(3-Amino-1-methyl-4-{4-[3-(3-trifluoromethyl-phenyl)-ureido]-phenyl}-1H-pyrazolo[3,4-b]pyridin-6-yl)-cyclopropanecarboxylic acid (2-hydroxy-ethyl)-amide], the IC50 in assay [1] was 0.1 to 1 µM; in assay [2] it was 0.1 to 1 µM; in assay [3], no more than 0.1 µM. Moreover, the “Selectivity vs. cKit” value in assay [1] was determined as 11.

As for `Cn1nc(N)c2c(-c3ccc(NC(=O)Nc4cccc(C(F)(F)F)c4)cc3)cc(C3(C(N)=O)CC3)nc21` [Example 2.1, 1-(3-Amino-1-methyl-4-{4-[3-(3-trifluoromethyl-phenyl)-ureido]-phenyl}-1H-pyrazolo[3,4-b]pyridin-6-yl)-cyclopropanecarboxylic acid amide], the IC50 is 0.1 to 1 µM in assay [1], no more than 0.1 µM in assay [2] and no more than 0.1 µM in assay [3]. Also, the “Selectivity vs. cKit” value in assay [1] turned out to be 6.

As to `Cc1ccc(F)c(NC(=O)Nc2ccc(-c3cc(C4(C(=O)N5CCCC5)CC4)nc4c3c(N)nn4C)cc2)c1` [Example 4.3], the IC50 is 1 to 10 µM in assay [1], no more than 0.1 µM in assay [2] and no more than 0.1 µM in assay [3]. Moreover, in assay [1], the “Selectivity vs. cKit” value is reported as greater than 100.

On to `Cc1ccc(F)c(NC(=O)Nc2ccc(-c3cc(C4(C(=O)N(C)C)CC4)nc4c3c(N)nn4C)cc2)c1` [Example 4.4, 1-(3-Amino-4-{4-[3-(2-fluoro-5-methyl-phenyl)-ureido]-phenyl}-1-methyl-1H-pyrazolo[3,4-b]pyridin-6-yl)-cyclopropanecarboxylic acid dimethylamide], for which the IC50 in assay [1] is 1 to 10 µM; in assay [2], no more than 0.1 µM; in assay [3], no more than 0.1 µM. Also, the “Selectivity vs. cKit” value in assay [1] worked out at 15.

In the case of `Cn1nc(N)c2c(-c3ccc(NC(=O)Nc4cccc(C(F)(F)F)c4)cc3)cc(C3CCC3)nc21` [Example 6.1, 1-[4-(3-Amino-6-cyclobutyl-1-methyl-1H-pyrazolo[3,4-b]pyridin-4-yl)-phenyl]-3-(3-trifluoromethyl-phenyl)-urea], the figures for the IC50 in assay [1], in assay [2] and in assay [3] were 1 to 10 µM, no more than 0.1 µM and no more than 0.1 µM, respectively. Besides, the “Selectivity vs. cKit” value in assay [1] was 20.

For `Cn1nc(N)c2c(-c3ccc(NC(=O)Nc4cccc(C(F)(F)F)c4)cc3)cc(C3CCCCC3)nc21` [Example 7.1, 1-[4-(3-Amino-6-cyclohexyl-1-methyl-1H-pyrazolo[3,4-b]pyridin-4-yl)-phenyl]-3-(3-trifluoromethyl-phenyl)-urea], the IC50 in assay [1] was 0.1 to 1 µM; in assay [2], no more than 0.1 µM; in assay [3], no more than 0.1 µM. The “Selectivity vs. cKit” value in assay [1] is given as 9.

Take `COC(=O)C[C@@H]1C[C@H](c2cc(-c3ccc(NC(=O)Nc4cccc(C(F)(F)F)c4)cc3)c3c(N)nn(C)c3n2)C1(C)C` [Example 8.2, [3-(3-Amino-1-methyl-4-{4-[3-(3-trifluoromethyl-phenyl)-ureido]-phenyl}-1H-pyrazolo[3,4-b]pyridin-6-yl)-2,2-dimethyl-cyclobutyl]-acetic acid methyl ester]: the IC50 in assay [1] is 1 to 10 µM; in assay [2] it was no more than 0.1 µM; in assay [3], no more than 0.1 µM. For the same compound, the “Selectivity vs. cKit” value in assay [1] worked out at 30.

`Cc1ccc(F)c(NC(=O)Nc2ccc(-c3cccc4[nH]nc(N)c34)cc2)c1` [PA1, 1-[4-(3-Amino-1H-indazol-4-yl)-phenyl]-3-(2-fluoro-5-methyl-phenyl)-urea]: the “times less active against Tie2 vs. KDR in enzymatic assays” value in assay [4] is listed as roughly 40 times. For the same compound, the “times less active against Tie2 than KDR in cellular assays” value in assay [5] is roughly 1000 times.

For `Nc1n[nH]c2nccc(-c3ccc(NC(=O)Nc4cccc(C(F)(F)F)c4)cc3)c12` [PA2, 1-[4-(3-Amino-1H-pyrazolo[3,4-b]pyridin-4-yl)-phenyl]-3-(3-trifluoromethyl-phenyl)-urea, reference compound], the IC50 in assay [1], in assay [2] and in assay [3] was no more than 0.1 µM in each case. Moreover, the “Selectivity vs. cKit” value in assay [1] is given as 0.67.

With `Cc1ccc(F)c(NC(=O)Nc2ccc(-c3ccnc4[nH]nc(N)c34)cc2)c1` [PA3, 1-[4-(3-Amino-1H-pyrazolo[3,4-b]pyridin-4-yl)-phenyl]-3-(2-fluoro-5-methyl-phenyl)-urea, reference compound], the IC50 in assay [1] was no more than 0.1 µM; in assay [2], 0.1 to 1 µM; in assay [3], no more than 0.1 µM. Further, the “Selectivity vs. cKit” value in assay [1] was 0.26.

For `Cn1nc(N)c2c(-c3ccc(NC(=O)Nc4cccc(C(F)(F)F)c4)cc3)ccnc21` [PA4, 1-[4-(3-Amino-1-methyl-1H-pyrazolo[3,4-b]pyridin-4-yl)-phenyl]-3-(3-trifluoromethyl-phenyl)-urea, reference compound], the results for the IC50 in assay [1], in assay [2] and in assay [3] were 0.1 to 1 µM, no more than 0.1 µM and no more than 0.1 µM, respectively. Moreover, in assay [1], the “Selectivity vs. cKit” value is on record as 1.6.

Turning to `Cc1ccc(F)c(NC(=O)Nc2ccc(-c3ccnc4c3c(N)nn4C)cc2)c1` [PA5, 1-[4-(3-Amino-1-methyl-1H-pyrazolo[3,4-b]pyridin-4-yl)-phenyl]-3-(2-fluoro-5-methyl-phenyl)-urea, reference compound], the IC50 was no more than 0.1 µM in assay [1], no more than 0.1 µM in assay [2] and 0.1 to 1 µM in assay [3]. Further, the “Selectivity vs. cKit” value in assay [1] worked out at 0.5.

Regarding `Cn1nc(N)c2c(-c3ccc(NC(=O)Nc4ccccc4)cc3)ccnc21` [PA6, 1-[4-(3-Amino-1-methyl-1H-pyrazolo[3,4-b]pyridin-4-yl)-phenyl]-3-phenyl-urea, reference compound], the figures for the IC50 in assay [1], in assay [2] and in assay [3] were no more than 0.1 µM, 1 to 10 µM and 1 to 10 µM, respectively. In addition, the “Selectivity vs. cKit” value in assay [1] amounted to 0.06.

Source of the values: patent US7825114B2, “Substituted aminopyrazolopyridines and salts thereof, pharmaceutical compositions comprising same, methods of preparing same and uses of same” (Bayer Schering Pharma AG, priority 2006, dated 2010).
